Assay results reported in patent US9340537B2, “Benzamide derivatives for inhibiting the activity of ABL1, ABL2 and BCR-ABL1” (NOVATIS AG, priority 2012, dated 2016).

Experiments:
ABL1 (64-515) [1] = target: T1, ABL1 (64-515) (Homo sapiens (Human), UniProt P00519); experiment: Radio ABL1 (64-515) radiometric filter-binding kinase assay; assay type: biochemical; details: 20 μM ATP
ABL1 (64-515) [2] = target: T1, ABL1 (64-515); experiment: Caliper ABL1 (64-515) microfluidic mobility shift kinase assay; details: read-out: Caliper ABL1 (64-515) IC50
[3] = test system: Ba/F3-BCR-ABL1-T315I cells; experiment: Proliferation assay Ba/F3-BCR-ABL1-T315I cells; assay type: cell-based, murine; details: Mus musculus, 48 h, read-out: Ba/F3-BCR-ABL1-T315I IC50 [μM]
Ba/F3-BCR-ABL1-WT cells = experiment: Proliferation assay Ba/F3-BCR-ABL1-WT cells; assay type: cell-based, murine; details: Mus musculus, 48 h, read-out: Ba/F3-BCR-ABL1-WT IC50 [μM]

T1 sequence (P00519 64-515): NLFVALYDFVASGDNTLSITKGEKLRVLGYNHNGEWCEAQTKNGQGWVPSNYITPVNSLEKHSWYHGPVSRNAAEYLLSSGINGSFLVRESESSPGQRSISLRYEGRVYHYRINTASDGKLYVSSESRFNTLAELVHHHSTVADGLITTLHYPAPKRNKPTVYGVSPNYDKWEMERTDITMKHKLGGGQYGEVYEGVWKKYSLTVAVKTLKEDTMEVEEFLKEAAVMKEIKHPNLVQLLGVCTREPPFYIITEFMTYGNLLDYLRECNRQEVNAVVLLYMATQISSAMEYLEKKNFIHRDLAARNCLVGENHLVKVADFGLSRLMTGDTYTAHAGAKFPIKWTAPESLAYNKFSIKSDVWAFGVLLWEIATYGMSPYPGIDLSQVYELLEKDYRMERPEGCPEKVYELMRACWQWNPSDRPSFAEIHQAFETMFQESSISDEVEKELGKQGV

Compound	IC50 (ABL1 (64-515) [1]) [nM]	IC50 (ABL1 (64-515) [2]) [nM]	IC50 [3] [µM]	IC50 (Ba/F3-BCR-ABL1-WT cells) [µM]
O=C(Nc1ccc(OC(F)(F)Cl)cc1)c1cnc(N2CCC(O)CC2)c(-c2ccn[nH]2)c1 [Example 85, N-(4-(Chlorodifluoromethoxy)phenyl)-6-(4-hydroxypiperidin-1-yl)-5-(1H-pyrazol-5-yl)nicotinamide]	2	0.7		
CN(C)C1CN(c2ncc(C(=O)Nc3ccc(OC(F)(F)F)cc3)cc2-c2ccn[nH]2)C1 [Example 38, 6-(3-(Dimethylamino)azetidin-1-yl)-5-(1H-pyrazol-5-yl)-N-(4-(trifluoromethoxy)phenyl)nicotinamide]	8	1.5		
O=C(Nc1ccc(OC(F)(F)Cl)cc1)c1cnc(N2CCC[C@@H](O)C2)c(-c2ccn[nH]2)c1 [Example 87, (R)—N-(4-(Chlorodifluoromethoxy)phenyl)-6-(3-hydroxypiperidin-1-yl)-5-(1H-pyrazol-5-yl)nicotinamide]	3	1.3		
O=C(Nc1ccc(OC(F)(F)Cl)cc1)c1cnc(N2CCN(CC(F)F)CC2)c(-c2ccn[nH]2)c1 [Example 59, N-(4-(Chlorodifluoromethoxy)phenyl)-6-(4-(2,2-difluoroethyl)piperazin-1-yl)-5-(1H-pyrazol-5-yl)nicotinamide]	26	3.3		
O=C(Nc1ccc(OC(F)(F)Cl)cc1)c1cnc(N2CCC[C@H](O)C2)c(-c2ccn[nH]2)c1 [Example 86, (S)—N-(4-(Chlorodifluoromethoxy)phenyl)-6-(3-hydroxypiperidin-1-yl)-5-(1H-pyrazol-5-yl)nicotinamide]	4	1.5		
Cn1c(C#N)ccc1-c1cc(C(=O)Nc2ccc(OC(F)(F)Cl)cc2)cnc1N1CC[C@@H](O)C1 [Example 47, (R)—N-(4-(Chlorodifluoromethoxy)phenyl)-5-(5-cyano-1-methyl-1H-pyrrol-2-yl)-6-(3-hydroxypyrrolidin-1-yl)nicotinamide]	0.9	1.6		
NC12CC1CN(c1ncc(C(=O)Nc3ccc(OC(F)(F)F)cc3)cc1-c1ccn[nH]1)C2 (stereo not drawn) [Example 33, 6-(1-Amino-3-azabicyclo[3.1.0]hexan-3-yl)-5-(1H-pyrazol-5-yl)-N-(4-(trifluoromethoxy)phenyl)nicotinamide]	3	5		
O=C(Nc1ccc(OC(F)(F)Cl)cc1)c1cnc(N2CCNC3(CC3)C2)c(-c2ccn[nH]2)c1 [Example 56, N-(4-(Chlorodifluoromethoxy)phenyl)-5-(1H-pyrazol-5-yl)-6-(4,7-diazaspiro[2.5]octan-7-yl)nicotinamide]	1	2.9		
O=C(Nc1ccc(OC(F)(F)F)cc1)c1cnc(N2CCOCC2)c(-c2ccn[nH]2)c1 [Example 18, 6-Morpholino-5-(1H-pyrazol-5-yl)-N-(4-(trifluoromethoxy)phenyl)nicotinamide]	5	6.5		
CC1(O)CN(c2ncc(C(=O)Nc3ccc(OC(F)(F)F)cc3)cc2-c2ccn[nH]2)C1 [Example 40, 6-(3-Hydroxy-3-methylazetidin-1-yl)-5-(1H-pyrazol-5-yl)-N-(4-(trifluoromethoxy)phenyl)nicotinamide]	4	5.3		
NC[C@H]1CN(c2ncc(C(=O)Nc3ccc(OC(F)(F)Cl)cc3)cc2-c2ccn[nH]2)C[C@H]1O (relative stereo) [Example 80, 6-(cis-3-(Aminomethyl)-4-hydroxypyrrolidin-1-yl)-N-(4-(chlorodifluoromethoxy)phenyl)-5-(1H-pyrazol-5-yl)nicotinamide]	0.4	< 0.13		
O=C(Nc1ccc(OC(F)(F)F)cc1)c1cnc(N2CCCC2)c(-c2ccn[nH]2)c1 [Example 15, 5-(1H-Pyrazol-5-yl)-6-(pyrrolidin-1-yl)-N-(4-(trifluoromethoxy)phenyl)nicotinamide]	< 3	0.8		
N#Cc1ccc(-c2cc(C(=O)Nc3ccc(OC(F)(F)F)cc3)ccc2N2C[C@H](O)[C@@H](O)C2)[nH]1 [Example 29, 3-(5-Cyano-1H-pyrrol-2-yl)-4-((3S,4S)-3,4-dihydroxypyrrolidin-1-yl)-N-(4-(trifluoromethoxy)phenyl)benzamide]	< 0.1	0.5		
CN(C)C1CN(c2ncc(C(=O)Nc3ccc(OC(F)(F)Cl)cc3)cc2-c2ccn[nH]2)C1 [Example 65, N-(4-(Chlorodifluoromethoxy)phenyl)-6-(3-(dimethylamino)azetidin-1-yl)-5-(1H-pyrazol-5-yl)nicotinamide]	5.6	0.9		
O=C(Nc1ccc(OC(F)(F)Cl)cc1)c1cnc(N2CCN(CCF)CC2)c(-c2ccn[nH]2)c1 [Example 58, N-(4-(Chlorodifluoromethoxy)phenyl)-6-(4-(2-fluoroethyl)piperazin-1-yl)-5-(1H-pyrazol-5-yl)nicotinamide]	5.7	2.4		
CO[C@H]1CN(c2ncc(C(=O)Nc3ccc(OC(F)(F)F)cc3)cc2-c2ccn[nH]2)C[C@@H]1N (relative stereo) [Example 78, 6-(trans-3-Amino-4-methoxypyrrolidin-1-yl)-5-(1H-pyrazol-5-yl)-N-(4-(trifluoromethoxy)phenyl)nicotinamide]	4	3.6		
O=C(Nc1ccc(OC(F)(F)Cl)cc1)c1cnc(N2CC3(CNC3)C2)c(-c2ccn[nH]2)c1 [Example 68, N-(4-(Chlorodifluoromethoxy)phenyl)-5-(1H-pyrazol-5-yl)-6-(2,6-diazaspiro[3.3]heptan-2-yl)nicotinamide]	2	< 0.13		
NCC1(F)CCN(c2ncc(C(=O)Nc3ccc(OC(F)(F)Cl)cc3)cc2-c2ccn[nH]2)C1 (stereo not drawn) [Example 51, 6-(3-(Aminomethyl)-3-fluoropyrrolidin-1-yl)-N-(4-(chlorodifluoromethoxy)phenyl)-5-(1H-pyrazol-5-yl)nicotinamide]	4.9	1.1		
N#Cc1ccc(-c2cc(C(=O)Nc3ccc(OC(F)(F)Cl)cc3)cnc2N2C[C@H](O)[C@@H](O)C2)[nH]1 [Example 46, N-(4-(Chlorodifluoromethoxy)phenyl)-5-(5-cyano-1H-pyrrol-2-yl)-6-((3S,4S)-3,4-dihydroxypyrrolidin-1-yl)nicotinamide]	1	0.4		
C[C@@]1(O)CCN(c2ncc(C(=O)Nc3ccc(OC(F)(F)F)cc3)cc2-c2ccn[nH]2)C1 [Example 14, (R)-6-(3-Hydroxy-3-methylpyrrolidin-1-yl)-5-(1H-pyrazol-5-yl)-N-(4-(trifluoromethoxy)phenyl)nicotinamide]			0.134	0.0048

Now from value to molecule, other results behind:

IC50 (ABL1 (64-515) [1]) [nM]	IC50 (ABL1 (64-515) [2]) [nM]	Compound	IC50 [3] [µM]	IC50 (Ba/F3-BCR-ABL1-WT cells) [µM]
11	1	CN(CCO)c1ncc(C(=O)Nc2ccc(SC(F)(F)F)cc2)cc1-c1ccn[nH]1 [Example 26, 6-((2-Hydroxyethyl)(methyl)amino)-5-(1H-pyrazol-5-yl)-N-(4-((trifluoromethyl)thio)phenyl)nicotinamide]		
3	1.4	N[C@H]1CN(c2ccc(C(=O)Nc3ccc(OC(F)(F)Cl)cc3)cc2-c2ccn[nH]2)C[C@@H]1O [Example 76, 4-((3S,4S)-3-Amino-4-hydroxypyrrolidin-1-yl)-N-(4-(chlorodifluoromethoxy)phenyl)-3-(1H-pyrazol-5-yl)benzamide]		
4	0.2	NC1CN(c2ncc(C(=O)Nc3ccc(OC(F)(F)Cl)cc3)cc2-c2ccn[nH]2)C1 [Example 64, 6-(3-Aminoazetidin-1-yl)-N-(4-(chlorodifluoromethoxy)phenyl)-5-(1H-pyrazol-5-yl)nicotinamide]		
1.5	0.8	CC1(O)CN(c2ncc(C(=O)Nc3ccc(OC(F)(F)Cl)cc3)cc2-c2ccn[nH]2)C1 [Example 66, N-(4-(Chlorodifluoromethoxy)phenyl)-6-(3-hydroxy-3-methylazetidin-1-yl)-5-(1H-pyrazol-5-yl)nicotinamide]		
3	4.5	O=C(Nc1ccc(OC(F)(F)F)cc1)c1cnc(N2CC(CO)C2)c(-c2ccn[nH]2)c1 [Example 39, 6-(3-(Hydroxymethyl)azetidin-1-yl)-5-(1H-pyrazol-5-yl)-N-(4-(trifluoromethoxy)phenyl)nicotinamide]		
4	4.2	CO[C@H]1CN(c2ccc(C(=O)Nc3ccc(OC(F)(F)F)cc3)cc2-c2cncs2)C[C@@H]1O (relative stereo) [Example 4, 4-(trans-3-Hydroxy-4-methoxypyrrolidin-1-yl)-3-(thiazol-5-yl)-N-(4-(trifluoromethoxy)phenyl)benzamide]		
< 3	5	CN(CCO)c1ccc(C(=O)Nc2ccc(OC(F)(F)F)cc2)cc1-c1cncs1 [Example 20, 4-((2-Hydroxyethyl)(methyl)amino)-3-(thiazol-5-yl)-N-(4-(trifluoromethoxy)phenyl)benzamide]		
2.7	3.4	CN(CCO)c1ncc(C(=O)Nc2ccc(OC(F)(F)Cl)cc2)cc1-c1ccn[nH]1 [Example 23, N-(4-(Chlorodifluoromethoxy)phenyl)-6-((2-hydroxyethyl)(methyl)amino)-5-(1H-pyrazol-5-yl)nicotinamide]		
3	3.4	N[C@@H]1CN(c2ncc(C(=O)Nc3ccc(OC(F)(F)Cl)cc3)cc2-c2ccn[nH]2)C[C@H]1F (relative stereo) [Example 52, 6-(trans-3-Amino-4-fluoropyrrolidin-1-yl)-N-(4-(chlorodifluoromethoxy)phenyl)-5-(1H-pyrazol-5-yl)nicotinamide]		
5.8	3.4	O=C(Nc1ccc(OC(F)(F)Cl)cc1)c1cnc(N2CCN(C3CC3)CC2)c(-c2ccn[nH]2)c1 [Example 57, N-(4-(Chlorodifluoromethoxy)phenyl)-6-(4-cyclopropylpiperazin-1-yl)-5-(1H-pyrazol-5-yl)nicotinamide]		
